What was measured:
Format in all cases: toxicity, cell-based
Fibroblast = experiment: Incucyte cell viability with human fibroblast; details: 10 µM, compound concentration 10 uM
HEK-293T = experiment: Incucyte cell viability with HEK293T; details: human, 10 µM, compound concentration 10 uM
U2OS = experiment: Incucyte cell viability with U2OS; details: human, 10 µM, compound concentration 10 uM
Further: unitless GR value; below 1 slowed growth and below 0 cell loss.

Compound	Growth Rate (Fibroblast; 12 h, replicate number 1)	Growth Rate (Fibroblast; 12 h, replicate number 2)	Growth Rate (Fibroblast; 18 h, replicate number 1)	Growth Rate (Fibroblast; 18 h, replicate number 2)	Growth Rate (Fibroblast; 24 h, replicate number 1)	Growth Rate (HEK-293T; 6 h, replicate number 1)	Growth Rate (HEK-293T; 6 h, replicate number 2)	Growth Rate (HEK-293T; 12 h, replicate number 1)	Growth Rate (HEK-293T; 12 h, replicate number 2)	Growth Rate (HEK-293T; 18 h, replicate number 1)	Growth Rate (HEK-293T; 18 h, replicate number 2)	Growth Rate (HEK-293T; 24 h, replicate number 1)	Growth Rate (HEK-293T; 24 h, replicate number 2)	Growth Rate (U2OS; 12 h, replicate number 2)	Growth Rate (U2OS; 18 h, replicate number 1)	Growth Rate (U2OS; 24 h, replicate number 1)	Growth Rate (U2OS; 24 h, replicate number 2)	Growth Rate (U2OS; 0 h, replicate number 1)	Growth Rate (U2OS; 6 h, replicate number 1)	Growth Rate (U2OS; 12 h, replicate number 1)	other results
CCCCNc1ncc2c(-c3ccc(CN4CCN(C)CC4)cc3)cn([C@H]3CC[C@H](O)CC3)c2n1	0.6	0.3	-0.08	-0.25	-0.18	-0.33	-0.21	-0.54	-0.55	-0.43	-0.41	-0.3	-0.28	0.4	0.13	-0.14	-0.3				Growth Rate (Fibroblast; 0 h, replicate number 2): -0.9; Growth Rate (Fibroblast; 24 h, replicate number 2): -0.33; Growth Rate (HEK-293T; 0 h, replicate number 2): 0.42; Growth Rate (U2OS; 0 h, replicate number 2): 0.17; Growth Rate (U2OS; 18 h, replicate number 2): -0.13
CCC(C(=O)Nc1ccc(-c2cc3ccccc3s2)c(C(N)=O)c1)c1nccs1 (stereo not drawn)	0.72		0.93	0.9	0.96	0.31	0.23	0.59	0.52	0.48	0.61	0.47	0.71	0.59	0.47	0.72	0.86	0.65	0.65	0.41	Growth Rate (Fibroblast; 6 h, replicate number 1): 0.22; Growth Rate (Fibroblast; 6 h, replicate number 2): -0.79; Growth Rate (U2OS; 6 h, replicate number 2): 0.92; Growth Rate (U2OS; 18 h, replicate number 2): 0.8
CN[C@@H](C)C(=O)N[C@H](C(=O)N1CCC[C@H]1C(=O)N[C@@H]1CCCc2ccccc21)C1CCCCC1.Cl	0.76	0.89	0.75		0.72		0.63	0.81	0.9		0.87		0.88					0.24	0.97	0.89	Growth Rate (HEK-293T; 0 h, replicate number 2): -0.36
CC(Oc1cc(-c2cnn(C3CCNCC3)c2)cnc1N)c1c(Cl)ccc(F)c1Cl (stereo not drawn)	-0.94	-0.64	-0.67	-0.52	-0.22	-0.85	-0.51	-0.78	-0.35	-0.49	-0.18	-0.28	-0.11	0.65	0.4	0.39	0.5	-1		0.53	Growth Rate (Fibroblast; 6 h, replicate number 2): -0.95; Growth Rate (Fibroblast; 24 h, replicate number 2): -0.44; Growth Rate (U2OS; 18 h, replicate number 2): 0.45
Cc1nnc2n1-c1sc(CCC(=O)N3CCOCC3)cc1C(c1ccccc1Cl)=NC2 [APAFANT]			0.73		0.8			0.78						0.76	0.88	0.88	0.98	0.87	0.58	0.67	Growth Rate (Fibroblast; 0 h, replicate number 2): -0.81; Growth Rate (HEK-293T; 0 h, replicate number 2): -0.56; Growth Rate (U2OS; 6 h, replicate number 2): 0.99
COC(=O)c1ccc2c(c1)NC(=O)/C2=C(\Nc1ccc(N(C)C(=O)CN2CCN(C)CC2)cc1)c1ccccc1 [NINTEDANIB]					0.4	-0.42		0.57							0.97		0.99	0.64	-0.05		Growth Rate (Fibroblast; 0 h, replicate number 1): 0.43; Growth Rate (Fibroblast; 0 h, replicate number 2): -0.14; Growth Rate (U2OS; 0 h, replicate number 2): 0.08
COc1cc(C(=O)NC2CCN(C)CC2)ccc1Nc1ncc(C(F)(F)F)c(NCc2ccc(C)cc2N(C)S(C)(=O)=O)n1.O=CO.O=CO	-0.37	-0.43	-0.52	-0.55	-0.58	-0.77	-0.51	-0.63	-0.48	-0.54	-0.33	-0.45	-0.34	-0.43	-0.12	-0.27	-0.53	-0.98	0.97	0.11	Growth Rate (Fibroblast; 6 h, replicate number 1): -0.43; Growth Rate (Fibroblast; 6 h, replicate number 2): -0.42; Growth Rate (Fibroblast; 24 h, replicate number 2): -0.54; Growth Rate (HEK-293T; 0 h, replicate number 2): -1; Growth Rate (U2OS; 0 h, replicate number 2): -0.24; Growth Rate (U2OS; 6 h, replicate number 2): -0.57; Growth Rate (U2OS; 18 h, replicate number 2): -0.46
O=C1CCCN1CCNc1nc(Nc2ccc(Cl)c(Cl)c2)ncc1C(F)(F)F	0.62	0.41	0.65	0.48	0.64					0.89		0.78		-0.25	0.25	0.37		-1	0.32	0.24	Growth Rate (Fibroblast; 6 h, replicate number 2): 0.95; Growth Rate (Fibroblast; 24 h, replicate number 2): 0.45; Growth Rate (HEK-293T; 0 h, replicate number 1): -0.87; Growth Rate (HEK-293T; 0 h, replicate number 2): -1
CC(=O)O.Cc1cc2c(ncn2C2(C)CN(C(=O)c3ccn(CC4CCN([C@H]5C=CCCCC5)CC4)c3)C2)c(N)n1	0.9	0.83	0.86	0.98												0.75		0.51	0.96		Growth Rate (Fibroblast; 0 h, replicate number 2): 0.45; Growth Rate (Fibroblast; 6 h, replicate number 2): 0.25; Growth Rate (HEK-293T; 0 h, replicate number 1): -0.66
COc1cc(N2CCN(C)CC2)ccc1Nc1ncc2c(n1)N(C)c1ccccc1C(=O)N2CC(F)(F)F	0.43	0.51	0.09	0.31	-0.1	-0.03	0	0.26	0.22	0.22	0.29	0.27	0.36		0.99		0.83			0.97	Growth Rate (Fibroblast; 6 h, replicate number 1): 0.44; Growth Rate (Fibroblast; 6 h, replicate number 2): 0.47; Growth Rate (Fibroblast; 24 h, replicate number 2): 0.08; Growth Rate (U2OS; 6 h, replicate number 2): 0.9; Growth Rate (U2OS; 18 h, replicate number 2): 0.87

Source: ChEMBL document CHEMBL5303304, “EUbOPEN Chemogenomics Library - IncuCyte” (2023)
